Data published in US10035792B2, “Resorcinol derivative as HSP90 inhibitor” (priority 2015, dated 2018).

Tests used:
HSP90α = HSP90α (Homo sapiens (Human), UniProt P07900); test: Fluorescence polarization (FP) HSP90-alpha target binding assay; conditions: fluorescence polarization; read-out: Target binding ability HSP90α FP IC50
Description: In the present invention, the method of fluorescence polarization (FP) was used to establish the screening platform for HSP90-alpha inhibitors. The principle based on is to calculate fluorescence polarization values in horizontal and vertical directions by detecting molecular weight changes before and after interaction of fluorescent labeled small molecules with other molecules, in use for correlation analysis. If binding equilibria between the fluorescent labeled small molecule and the macromolecule is established, it moves slowly when excited, and the fluorescence polarization values measured will increase. If the fluorescent labeled small molecule binding to the macromolecule is replaced with other ligands, its rotational or inversional speed in free state will become faster, the emitted light would be depolarized with respect to the exciting light plane, and thus the polarized light value measured will decrease, so as to calculate the polarization value of the sample (the unit of polarization value is mP).
The fluorescent labeled small molecule used in the present invention was VER-00051001 (synthesized by reference to the synthetic method described in JMC, 2008, 51, 196-218). The reaction was carried out in a 384-well black plate, using the reaction hydrophobic protein HFB buffer: 100 mM Tris.Cl pH 7.4, 20 mM KCl, 6 mM MgCl2, 5 μg/mL BSA, 25 nM full-length Hsp90U, 10 nM VER-51001. The volume of the reaction system was […], containing 5 nM GM-BODIPY (geldanamycin), 30 nM HSP90 and the test small molecular compound or DMSO (dimethyl sulfoxide), wherein the DMSO content was 2% o. Additional two group wells were established, wherein the wells only added with HFB buffer were used as blank controls, and the wells further added with 5 nM GM-BODIPY were used as negative controls. The reaction was carried out at 4° C. for 12-16 hours. The mP value was measured by Biotek microplate reader at 485 nm of excitation wavelength and 535 nm of emission wavelength. The inhibition rate was calculated using the following equation: (Compound-free mP−Compound mP)/(Compound-free mP−negative control mP)×100%

[1] = tested on: human lung cancer cell line A549; test: Tumor cell growth inhibition, SRB staining, A549; assay type: cell-based; conditions: A549, 72 h
Method: The growth inhibition assay of tumor cells was detected by sulforhodamine B (SRB) staining method. The specific steps were as follows: inoculating human colon cancer cell line HCT116 and human lung cancer cell line A549 (purchased from American Type Culture Collection, ATCC) at the logarithmic growth phase into a 96-well micro culture plate at an appropriate concentration of 4000 cells/well, 100 μL for each well; after culturing overnight, adding with the compound at different concentrations (100, 10, 1, 0.1, 0.01 μM) to react for 72 h, wherein triplicate wells were set up for each concentration, and solvent control wells with the corresponding concentration and zero wells without cells were also set up. After the completion of the reaction, the culture medium was removed from the adherent cells, the later was added with 10% (w/v) trichloroacetic acid (100 μL/well) at 4° C. to fix for 1 h, and then washed five times with distilled water. After drying at room temperature, 100 μL of SRB solution (4 mg/mL, dissolved in 1% glacial acetic acid) was added into each well, followed by incubation and staining for 15 min at room temperature. The uncombined SRB was removed by washing five times with 1% glacial acetic acid. After drying at room temperature, 100 μL of 10 mM Tris solution was added into each well, and the optical density (OD) at 515 nm was measured by a […] microplate reader. The inhibition rate of the drug to tumor cell growth was calculated according to the following equation: Inhibition rate (%)=(OD of control well-OD of drug well)/OD of control well×100%. The experiment was repeated twice.

SMILES	IC50 (HSP90α)	EC50 [1]
CCc1cnc(-c2noc(-c3cc(C(C)C)c(O)cc3O)c2-c2ccc3c(c2)CCN(CCO)C3)[nH]1 [Example 17, 4-(3-(5-ethyl-1H-imidazol-2-yl)-4-(2-(2-hydroxyethyl)-1,2,3,4-tetrahydroisoquinolin-6-yl)isoxazol-5-yl)-6-isopropylbenzene-1,3-diol]	20 to 100 nM	20 to 100 nM
CCNC(=O)c1onc(-c2cc(C(C)C)c(O)cc2O)c1-c1ccc2cnccc2c1 [Example 29, 3-(2,4-dihydroxyl-5-isopropylphenyl)-N-ethyl-4-(isoquinolin-6-yl)isoxazole-5-carboxamide]	< 20 nM	20 to 100 nM
CCNC(=O)c1noc(-c2cc(C(C)C)c(O)cc2O)c1-c1ccc2c(c1)CCN(C)CC2 [Example 25, 5-(2,4-dihydroxyl-5-isopropylphenyl)-N-ethyl-4-(3-methyl-2,3,4,5-tetrahydro-1H-benzo[d]azepin-7-yl)isoxazole-3-carboxamide]	< 20 nM	20 to 100 nM
CC(C)c1cc(-c2onc(C(O)C(F)(F)F)c2-c2ccc3c(c2)CCN(C)C3)c(O)cc1O (stereo not drawn) [Example 20, 4-isopropyl-6-(4-(2-methyl-1,2,3,4-tetrahydroisoquinolin-6-yl)-3-(2,2,2-trifluoro-1-hydroxyethyl)isoxazol-5-yl)benzene-1,3-diol]	20 to 100 nM	> 100 nM
CC(C)NC(=O)c1noc(-c2cc(C(C)C)c(O)cc2O)c1-c1ccc2c(c1)CCN(C)C2 [Example 38, 5-(2,4-dihydroxyl-5-isopropylphenyl)-N-isopropyl-4-(2-methyl-1,2,3,4-tetrahydroisoquinolin-6-yl)isoxazole-3-carboxamide]	20 to 100 nM	20 to 100 nM
CCNC(=O)c1noc(-c2cc(Br)c(O)cc2O)c1-c1ccc2c(c1)CCN(C)C2 [Example 30, 5-(2,4-dihydroxyl-5-bromo-phenyl)-N-ethyl-4-(2-methyl-1,2,3,4-tetrahydroisoquinolin-6-yl)isoxazole-3-carboxamide]	20 to 100 nM	> 100 nM
COCCNC(=O)c1noc(-c2cc(C(C)C)c(O)cc2O)c1-c1ccc2c(c1)CCN(C)C2 [Example 41, 5-(2,4-dihydroxyl-5-isopropylphenyl)-N-(2-methoxyethyl)-4-(2-methyl-1,2,3,4-tetrahydroisoquinolin-6-yl)isoxazole-3-carboxamide]	< 20 nM	20 to 100 nM
CCNC(=O)c1noc(-c2cc(C(C)C)c(O)cc2O)c1-c1cnc2c(c1)CN(C)CC2 [Example 19, 5-(2,4-dihydroxyl-5-isopropylphenyl)-N-ethyl-4-(6-methyl-5,6,7,8-tetrahydro-1,6-naphthyridin-3-yl)isoxazole-3-carboxamide]	20 to 100 nM	> 100 nM
CCNC(=O)c1noc(-c2cc(C)c(O)cc2O)c1-c1ccc2c(c1)CCN(C)C2 [Example 32, 5-(2,4-dihydroxyl-5-methylphenyl)-N-ethyl-4-(2-methyl-1,2,3,4-tetrahydroisoquinolin-6-yl)isoxazole-3-carboxamide]	< 20 nM	> 100 nM
CCNC(=O)c1noc(-c2cc(CC)c(O)cc2O)c1-c1ccc2c(c1)CCN(C)C2 [Example 34, 5-(5-ethyl-2,4-dihydroxyl-phenyl)-N-ethyl-4-(2-methyl-1,2,3,4-tetrahydroisoquinolin-6-yl)isoxazole-3-carboxamide]	< 20 nM	20 to 100 nM

Next, values leading:

IC50 (HSP90α)	EC50 [1]	SMILES
20 to 100 nM	< 20 nM	CCNC(=O)c1noc(-c2cc(C(C)C)c(O)cc2O)c1-c1ccc2c(c1)CCN(CCF)C2 [Example 46, 5-(2,4-dihydroxyl-5-isopropylphenyl)-N-ethyl-4-(2-(2-fluoroethyl)-1,2,3,4-tetrahydroisoquinolin-6-yl)isoxazole-3-carboxamide]
20 to 100 nM	> 100 nM	CCNC(=O)c1noc(-c2cc(C(C)C)c(O)cc2O)c1-c1ccc2c(c1)CCN(CCCNC(C)=O)C2 [Example 54]
< 20 nM	20 to 100 nM	CCNC(=O)c1noc(-c2cc(C(C)C)c(O)cc2O)c1-c1ccc2c(c1)CCN(CCOC)C2 [Example 45, 5-(2,4-dihydroxyl-5-isopropylphenyl)-N-ethyl-4-(2-(2-methoxyethyl)-1,2,3,4-tetrahydroisoquinolin-6-yl)isoxazole-3-carboxamide]
< 20 nM	< 20 nM	CNC(=O)c1onc(-c2cc(C(C)C)c(O)cc2O)c1-c1ccc2c(c1)CCN(C)C2 [Example 62, 3-(2,4-dihydroxyl-5-isopropylphenyl)-N-methyl-4-(2-methyl-1,2,3,4-tetrahydroisoquinolin-6-yl)isoxazole-5-carboxamide]
20 to 100 nM	20 to 100 nM	CCNC(=O)c1noc(-c2cc(C(C)C)c(O)cc2O)c1-c1ccc2c(c1)CCN(C(C)C)C2 [Example 51, 5-(2,4-dihydroxyl-5-isopropylphenyl)-N-ethyl-4-(2-isopropyl-1,2,3,4-tetrahydroisoquinolin-6-yl)isoxazole-3-carboxamide]
< 20 nM	< 20 nM	CCNC(=O)c1onc(-c2cc(C(C)C)c(O)cc2O)c1-c1ccc2c(c1)CCN(C(C)C)C2 [Example 68, 3-(2,4-dihydroxyl-5-isopropylphenyl)-N-ethyl-4-(2-isopropyl-1,2,3,4-tetrahydroisoquinolin-6-yl)isoxazole-5-carboxamide]
20 to 100 nM	20 to 100 nM	CCNC(=O)c1noc(-c2cc(C(C)C)c(O)cc2O)c1-c1ccc2c(c1)CCN(CC(C)C)C2 [Example 52, 5-(2,4-dihydroxyl-5-isopropylphenyl)-N-ethyl-4-(2-isobutyl-1,2,3,4-tetrahydroisoquinolin-6-yl)isoxazole-3-carboxamide]
< 20 nM	< 20 nM	CC(C)c1cc(-c2noc(C(=O)NCCCO)c2-c2ccc3c(c2)CCN(C)C3)c(O)cc1O [Example 66, 3-(2,4-dihydroxyl-5-isopropylphenyl)-N-(3-hydroxylpropyl)-4-(2-methyl-1,2,3,4-tetrahydroisoquinolin-6-yl)isoxazole-5-carboxamide]
20 to 100 nM	> 100 nM	CCNC(=O)c1noc(-c2cc(C(C)C)c(O)cc2O)c1-c1ccc2c(c1)CCN(CCNC(C)=O)C2 [Example 53, 4-(2-(2-acetylaminoethyl)-1,2,3,4-tetrahydroisoquinolin-6-yl)-5-(2,4-dihydroxyl-5-isopropylphenyl)-N-ethylisoxazole-3-carboxamide]
20 to 100 nM	20 to 100 nM	CCNC(=O)c1noc(-c2cc(C(C)C)c(O)cc2O)c1-c1ccc2c(c1)CCN(CCS(=O)(=O)CC)C2 [Example 48, 5-(2,4-dihydroxyl-5-isopropylphenyl)-N-ethyl-4-(2-(2-ethylsulfonyl)ethyl-1,2,3,4-tetrahydroisoquinolin-6-yl)isoxazole-3-carboxamide]
20 to 100 nM	20 to 100 nM	CCNC(=O)c1noc(-c2cc(C(C)C)c(O)cc2O)c1-c1ccc2c(c1)CCN(CCCOC)C2 [Example 47, 5-(2,4-dihydroxyl-5-isopropylphenyl)-N-ethyl-4-(2-(3-methoxypropyl)-1,2,3,4-tetrahydroisoquinolin-6-yl)isoxazole-3-carboxamide]
20 to 100 nM	> 100 nM	CCNC(=O)c1noc(-c2cc(C(C)C)c(O)cc2O)c1-c1ccc2c(c1)CCN(CCC(=O)N(C)C)C2 [Example 56]
< 20 nM	< 20 nM	CC(C)c1cc(-c2noc(C(=O)NCCF)c2-c2ccc3c(c2)CCN(C)C3)c(O)cc1O [Example 65, 3-(2,4-dihydroxyl-5-isopropylphenyl)-N-(2-fluoroethyl)-4-(2-methyl-1,2,3,4-tetrahydroisoquinolin-6-yl)isoxazole-5-carboxamide]
20 to 100 nM	< 20 nM	CCCN1CCc2cc(-c3c(C(=O)NCC)noc3-c3cc(C(C)C)c(O)cc3O)ccc2C1 [Example 50, 5-(2,4-dihydroxyl-5-isopropylphenyl)-N-ethyl-4-(2-propyl-1,2,3,4-tetrahydroisoquinolin-6-yl)isoxazole-3-carboxamide]
